Tests used:
[1] = tested on: paw edema; assay: Freund complete adjuvant induced arthritis model, paw edema; format: in vivo, Sprague Dawley rats; conditions: prednisolone 10 mg/kg body weight for 14 days; paw volume 13 days after FCA; vs CMC control
Method: The anti-oxidant and anti-inflammatory efficacies of Aphanamixis polystachya extract or fractions were evaluated by an in vivo study in Freund complete adjuvant induced arthritis model of Sprague Dawley rats. The rats of either sex were randomly selected and divided into three groups containing four animals in each group. Rats were supplemented with 50 mg/kg body weight of A. polystachya extract, or prednisolone (10 mg/kg body weight) for 14 days. The animals of control group received only the same volume of 1% Na CMC. At the 14 th day, Freund complete adjuvant (FCA) was injected subcutaneously in the sub-plantar region of the left hind paw of each animal. At the end of experiment, the animals were sacrificed and liver tissue samples were excised and stored in aliquot at −80° C. Blood samples were collected from each animal at a regular interval and paw volumes were measured by Plethysmography equipment after 13 days of FCA inoculation. The difference in volume of edema at the day of FCA injection and at 13th day after induction is considered as the inflammatory response. The in vivo anti-inflammatory response of A. polystachya was estimated by calculating, the percentage of inhibition of paw edema when compared with the CMC supplemented control rats and was compared with that of the positive control group supplemented with prednisolone as shown in FIG. 1.

[2] = Superoxide radical scavenging activity (NBT method, McCord and Fridovich); format: biochemical; conditions: riboflavin/NBT, phosphate buffer pH 7.8, 560 nm
Method: Superoxide radical scavenging activity of test substances was determined by the method of McCord and Fridovich. […] The tubes were mixed well and optical densities were measured at 560 nm. The tubes were uniformly illuminated with an incandescent lamp for 15 min. and the optical densities were measured again at 560 nm. The percentage inhibition of superoxide radical generation was measured by comparing the absorbance values of control and those of the test substances. The IC50 values were obtained from the plot drawn of the concentration (μg) verses percentage inhibition.

[3] = DPPH free radical scavenging activity (method of Lamaison et al.); format: physicochemical; conditions: methanolic DPPH, 517 nm

SMILES	inhibition in paw edema [1]	NBT method IC50 (superoxide radical scavenging) [2]	DPPH method IC50 [3]
C[C@]12C=CC(=O)C=C1CC[C@@H]1[C@@H]2[C@@H](O)C[C@@]2(C)[C@H]1CC[C@]2(O)C(=O)CO [prednisolone]	47.4%		
O=C1O[C@H]([C@@H](O)CO)C(O)=C1O [Vitamin C]		150 µg/mL	4.1 µg/mL

— patent US8337916B2, “Use of Aphanamixis polystacha extracts or fractions against 5-lipoxygenase mediated diseases” (Laila Nutraceuticals, priority 2007, dated 2012)
